Earlier results on 2 compounds are cited in patent US20150374773A1, “Homeopathic Composition Comprising Hypericum Perforatum Extract And Essential Oils For The Treatment Of Neuropathic Pain” (NEURAGEN CORP., priority 2008, published 2015).

The test system of the data set is neuropathic pain. The following applies: literature statement.

In the case of `Nc1nnc(-c2cccc(Cl)c2Cl)c(N)n1` [Lamotrigine], the “efficacy in neuropathic pain” value was “no better than placebo”.
Turning to `NCC1(CC(=O)O)CCCCC1` [gabapentin], the “efficacy in neuropathic pain” value is “effective in painful diabetic neuropathy, mixed neuropathies, and postherpetic neuralgia”.
